Measurements taken from patent publication US11679108B2, “Aromatic heterocyclic compound, and pharmaceutical composition and use thereof” (GUANGZHOU HENOVCOM BIOSCIENCE CO., LTD., priority 2018, dated 2023).

What follows are compounds tested against ATX (Homo sapiens, UniProt Q13822) (assay: Analysis in vitro: LPC was used as substrate for screening enzyme activity (Amplex Red fluorescence)). Settings: inhibitory activity against ATX, with LPC as substrate.
Assay type: biochemical
Excerpt: Analysis In Vitro: LPC was Used as Substrate for Screening Enzyme Activity
Principle: Lysophosphatidylcholine (LPC) as substrate is hydrolyzed by using the activity of lysoPLD enzyme, to produce lysophosphatidic acid (LPA) and choline, which is oxidized to produce H2O2 under the action of choline oxidase. In presence of horse radish peroxidase (HPR), Amplex Red reagent is reacted with H2O2 in a quantitative chemistry ratio of 1 to 1, to produce strong fluorescence products, which are detected by a fluorescent quantitative test.
Experimental procedures: the compounds to be tested were dissolved in DMSO, to prepare 10 mM of stock solution, which was diluted in a gradient concentration of 3 times with DMSO from 10 mM, to generate 10 concentration gradients. The reaction buffer solution was used for preparing a mixed solution 1 of 2 ng/μl ATX, 2 U/ml HRP and 0.2 U/ml choline oxidase in a final concentration. 20 μl of the above mixed solution 1 was added to each hole of an experiment board, […]. The compounds diluted with DMSO were transferred into an experiment board with Echo550. The reaction buffer solution was used for preparing a mixed solution 2 of […] LPC and 400 μM Amplex Red in a final concentration. 20 μl of the above mixed solution 2 was added to each hole of the experiment board. After addition, the experiment board was shook for 30 seconds on a shaker, and incubated for 30 minutes. Envision was used to read the fluorescence signals with an exciting light at 530 nm and emitted light at 590 nm. Inhibition ratio of the compounds to enzyme reaction was calculated according to the ratio of fluorescence, and IC50 of the compounds was analyzed and calculated by software, seeing Table 1.

SMILES | IC50
CCc1nc2sc(N3CCC(N(C)C(=O)N4CC(O)C4)C3)nn2c1N(C)c1nc(-c2ccc(F)cc2)c(C#N)s1 (stereo not drawn) [Example 30, N-{1-[5-((5-cyano-4-(4-fluorophenyl)thiazol-2-yl)(methyl)amino)-6-ethylimidazo[2,1-b][1,3,4]thiadiazol-2-yl}pyrrolidin-3-yl}-3-hydroxy-N-methylazetidine-1-carboxamide] | 0.01 to 100 nM
CCc1nc2sc(N3CCC4(CC3)CN(S(C)(=O)=O)C4)nn2c1N(C)c1nc(-c2ccc(F)cc2)c(C#N)s1 [Example 3, 2-{[6-ethyl-2-(4-(methylsulfonyl)-2,7-diazaspiro[3.5]nonan-7-yl)imidazo[2,1-b][1,3,4]thiadiazol-5-yl](methyl)amino}-4-(4-fluorophenyl)thiazole-5-carbonitrile] | 500 to 1000 nM
CCc1nc2sc(N3CC[C@@H](N(CC)CC(=O)N4CC(O)C4)C3)nn2c1N(C)c1nc(-c2ccc(F)cc2)c(C#N)s1 [Example 89, (R)-2-{[6-ethyl-2-(3-(ethyl(2-(3-hydroxyazetidin-1-yl)-2-oxoethyl)amino)pyrrolidin-1-yl)imidazo[2,1-b][1,3,4]thiadiazol-5-yl](methyl)amino}-4-(4-fluorophenyl)thiazole-5-carbonitrile] | 100 to 500 nM
CCc1nc2sc(N3CCC(N(C)C(=O)NC(C)(C)C)C3)nn2c1N(C)c1nc(-c2ccc(F)cc2)c(C#N)s1 (stereo not drawn) [Example 25, 3-tertbutyl-1-{1-[5-((5-cyano-4-(4-fluorophenyl)thiazol-2-yl)(methyl)amino)-6-ethylimidazo[2,1-b][1,3,4]thiadiazol-2-yl]pyrrolidin-3-yl}-1-methylurea] | 100 to 500 nM
CCc1nc2sc(N3CCC(N(C)C(=O)NC)C3)nn2c1N(C)c1nc(-c2ccc(F)cc2)c(C#N)s1 (stereo not drawn) [Example 29, 1-{1-[5-((5-cyano-4-(4-fluorophenyl)thiazol-2-yl)(methyl)amino)-6-ethylimidazo[2,1-b][1,3,4]thiadiazol-2-yl}pyrrolidin-3-yl}-1,3-dimethylurea] | 0.01 to 100 nM
CCc1nc2sc(N3CCC(N(C)CC(=O)N4CCOCC4)C3)nn2c1N(C)c1nc(-c2ccc(F)cc2)c(C#N)s1 (stereo not drawn) [Example 34, 2-{[6-ethyl-2-(3-(methyl(2-mophlin-2-oxoethyl)amino)pyrrolidin-1-yl)imidazo[2,1-b][1,3,4]thiadiazol-5-yl](methyl)amino}-4-(4-fluorophenyl)thiazole-5-carbonitrile] | 0.01 to 100 nM
CCc1nc2sc(C3CCN(C(N)=O)CC3)nn2c1N(C)c1nc(-c2ccc(F)cc2)c(C#N)s1 [Example 18, 4-{5-[(5-cyano-4-(4-fluorophenyl)thiazol-2-yl](methyl)amino]-6-ethylimidazo[2,1-b][1,3,4]thiadiazol-2-yl}piperidine-1-carboxamide] | 100 to 500 nM
CCc1nc2sc(N3CC[C@@H](N(C)CC(=O)N4CC(C(=O)OC)C4)C3)nn2c1N(C)c1nc(-c2ccc(F)cc2)c(C#N)s1 [Example 42, methyl (R)-1-{2-[(1-(5-((5-cyano-4-(4-fluorophenyl)thiazol-2-yl)(methyl)amino)-6-ethylimidazo[2,1-b][1,3,4]thiadiazol-2-yl)pyrrolidin-3-yl)(methyl)amino]acetyl}azetidine-3-carboxylate] | 100 to 500 nM
CCc1nc2sc(N3CC[C@@H](N(C)CC(=O)N4CCOCC4)C3)nn2c1N(C)c1nc(-c2ccc(F)cc2)c(C#N)s1 [Example 40, (R)-2-{[6-ethyl-2-(3-(methyl(2-morpholino-2-oxoethyl)amino)pyrrolidin-1-yl)imidazo[2,1-b][1,3,4]thiadiazol-5-yl](methyl)amino}-4-(4-fluorophenyl)thiazole-5-carbonitrile] | 100 to 500 nM
CCc1nc2sc(N3CC[C@H](N(C)CC(=O)N4CC(C(=O)OC)C4)C3)nn2c1N(C)c1nc(-c2ccc(F)cc2)c(C#N)s1 [Example 43, methyl (S)-1-{2-[(1-(5-((5-cyano-4-(4-fluorophenyl)thiazol-2-yl)(methyl)amino)-6-ethylimidazo[2,1-b][1,3,4]thiadiazol-2-yl)pyrrolidin-3-yl)(methyl)amino]acetyl}azetidine-3-carboxylate] | 0.01 to 100 nM
CCc1nc2sc(N3CC[C@@H](N(C=O)CC(=O)N4CC(O)C4)C3)nn2c1N(C)c1nc(-c2ccc(F)cc2)c(C#N)s1 [Example 91, (R)—N-{1-[5-((5-cyano-4-(4-fluorophenyl)thiazol-2-yl)(methyl)amino)-6-ethylimidazo[2,1-b][1,3,4]thiadiazol-2-yl]pyrrolidin-3-yl}-N-(2-(3-hydroxyazetidin-1-yl)-2-oxoethyl)formamide] | 0.01 to 100 nM
CN(c1nc(-c2ccc(F)cc2)c(C#N)s1)c1c(CCO)nc2sc(N3CC[C@@H](N(C)CC(=O)N4CC(O)C4)C3)nn12 [Example 87, (R)-4-(4-fluorophenyl)-2-{[2-(3-((2-(3-hydroxyazetidin-1-yl)-2-oxoethyl)(methyl)amino)pyrrolidin-1-yl)-6-(2-hydroxyethyl)imidazo[2,1-b][1,3,4]thiadiazol-5-yl](methyl)amino}thiazole-5-carbonitrile] | 500 to 1000 nM
CCc1nc2sc(N3CCC(N(C)C(=O)N4CCOCC4)C3)nn2c1N(C)c1nc(-c2ccc(F)cc2)c(C#N)s1 (stereo not drawn) [Example 32, N-{1-[5-((5-cyano-4-(4-fluorophenyl)thiazol-2-yl)(methyl)amino)-6-ethylimidazo[2,1-b][1,3,4]thiadiazol-2-yl}pyrrolidin-3-yl}-N-methylmorpholine-4-carboxamide] | 100 to 500 nM
CCc1nc2sc(N3CC[C@@H](N(CC(=O)N4CC(O)C4)CC4CC4)C3)nn2c1N(C)c1nc(-c2ccc(F)cc2)c(C#N)s1 [Example 90] | ≥ 1000 nM
CCc1nc2sc(N3CC4(C3)CN(S(C)(=O)=O)C4)nn2c1N(C)c1nc(-c2ccc(F)cc2)c(C#N)s1 [Example 5] | 500 to 1000 nM
CCc1nc2sc(N3CCN(S(C)(=O)=O)CC3)nn2c1N(C)c1nc(-c2ccc(F)cc2)c(C#N)s1 [Example 1] | ≥ 1000 nM
CCc1nc2sc(N3CC[C@@H](N(C)CC(=O)N4CC(C#N)C4)C3)nn2c1N(C)c1nc(-c2ccc(F)cc2)c(C#N)s1 [Example 46, (R)-2-{[2-(3-((2-(3-cyanoazetidin-1-yl)-2-oxoethyl)(methyl)amino)pyrrolidin-1-yl)-6-ethylimidazo[2,1-b][1,3,4]thiadiazol-5-yl](methyl)amino}-4-(4-fluorophenyl)thiazole-5-carbonitrile] | 100 to 500 nM
CCc1nc2sc(N3CCCC(N(C)S(C)(=O)=O)C3)nn2c1N(C)c1nc(-c2ccc(F)cc2)c(C#N)s1 (stereo not drawn) [Example 13, N-{1-[5-((5-cyano-4-(4-fluorophenyl)thiazol-2-yl)(methyl)amino)-6-ethylimidazo[2,1-b][1,3,4]thiadiazol-2-yl]piperidin-3-yl}-N-methylmethanesulfonamide] | 100 to 500 nM
CCc1nc2sc(N3CC[C@@H](N(C)CC(=O)N4CC(C(=O)O)C4)C3)nn2c1N(C)c1nc(-c2ccc(F)cc2)c(C#N)s1 [Example 44, (R)-1-{2-[(1-(5-((5-cyano-4-(4-fluorophenyl)thiazol-2-yl)(methyl)amino)-6-ethylimidazo[2,1-b][1,3,4]thiadiazol-2-yl}pyrrolidin-3-yl)(methyl)amino]acetyl}azetidine-3-carboxylic acid] | 100 to 500 nM
CCc1nc2sc(N3CCC(N(C)CC(=O)N4CC(C(=O)O)C4)C3)nn2c1N(C)c1nc(-c2ccc(F)cc2)c(C#N)s1 (stereo not drawn) [Example 35, 1-{2-[(1-(5-((5-cyano-4-(4-fluorophenyl)thiazol-2-yl)(methyl)amino)-6-ethylimidazo[2,1-b][1,3,4]thiadiazol-2-yl)pyrrolidin-3-yl)(methyl)amino]acetyl}azetidine-3-carboxylic acid] | 0.01 to 100 nM
CCc1nc2sc(N3CCC(N(C)C(=O)NC4CC4)C3)nn2c1N(C)c1nc(-c2ccc(F)cc2)c(C#N)s1 (stereo not drawn) [Example 27, 1-{1-[5-((5-cyano-4-(4-fluorophenyl)thiazol-2-yl)(methyl)amino)-6-ethylimidazo[2,1-b][1,3,4]thiadiazol-2-yl}pyrrolidin-3-yl}-3-cyclopropyl-1-methylurea] | 100 to 500 nM
CCc1nc2sc(N3CCC(N(C)C(=O)N(C)C)C3)nn2c1N(C)c1nc(-c2ccc(F)cc2)c(C#N)s1 (stereo not drawn) [Example 31, 1-{1-[5-((5-cyano-4-(4-fluorophenyl)thiazol-2-yl)(methyl)amino)-6-ethylimidazo[2,1-b][1,3,4]thiadiazol-2-yl]pyrrolidin-3-yl}-1,3,3-trimethylurea] | 100 to 500 nM
CCc1nc2sc(N3CCC(N(C)S(=O)(=O)C4CC4)C3)nn2c1N(C)c1nc(-c2ccc(F)cc2)c(C#N)s1 (stereo not drawn) [Example 28, N-{1-[5-((5-cyano-4-(4-fluorophenyl)thiazol-2-yl)(methyl)amino)-6-ethylimidazo[2,1-b][1,3,4]thiadiazol-2-yl}pyrrolidin-3-yl}-N-methylcyclopropanesulfonamide] | 100 to 500 nM
CCc1nc2sc(N3CCCC(N(C)C(=O)NC(C)(C)C)C3)nn2c1N(C)c1nc(-c2ccc(F)cc2)c(C#N)s1 (stereo not drawn) [Example 26, 3-tert-butyl-1-{1-[5-((5-cyano-4-(4-fluorophenyl)thiazol-2-yl)(methyl)amino)-6-ethylimidazo[2,1-b][1,3,4]thiadiazol-2-yl]piperidin-3-yl}-1-methylurea] | ≥ 1000 nM
